Laboratory results reported in patent US12643871B2, “Aryl formamide compound containing chiral sulfur oxide or salt thereof, preparation method, herbicidal composition and use thereof” (Qingdao Kingagroot Chemical Compound Co., Ltd., priority 2019, dated 2026).

Experiments:
Assay in all cases: Weeding effect in post-emergence stage
Assay type in all cases: in vivo
Conditions in all cases: 250 g/ha; 2 leaf stage; 15 days after application; fresh weight control rate
Digitaria sanguinalis = test system: Digitaria sanguinalis
Procedure, shortened: (§1)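 Activity graded 0 (<5%) to 5 (>85%) from fresh-weight control rate, averaged over three repeats, 15 days after a spray-tower application. Plants at 2-leaf stage (2 weeks post-sowing) received 15–500 g/ha of compound formulated in acetone, Tween 80 and methyl oleate synergist (1.5 L/ha).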

Echinochloa crusgali = test system: Echinochloa crusgali
Procedure, shortened: as §1

Abutilon theophrasti = test system: Abutilon theophrasti
Procedure, shortened: as §1

Amaranthus retroflexus = test system: Amaranthus retroflexus
Procedure, shortened: as §1

Setaria viridis = test system: Setaria viridis
Procedure, shortened: as §1

| Structure (SMILES) | weeding effect in post-emergence stage, activity level (growth control rate), Digitaria sanguinalis (Digitaria sanguinalis) | weeding effect in post-emergence stage, activity level (growth control rate), Echinochloa crusgali (Echinochloa crusgali) | weeding effect in post-emergence stage, activity level (growth control rate), Abutilon theophrasti (Abutilon theophrasti) | weeding effect in post-emergence stage, activity level (growth control rate), Amaranthus retroflexus (Amaranthus retroflexus) | weeding effect in post-emergence stage, activity level (growth control rate), Setaria viridis (Setaria viridis) |
| --- | --- | --- | --- | --- | --- |
| CSc1c(C(=O)Nc2nnc(C)o2)ccc(C(F)(F)F)c1[S@+]([O-])CCF [Compound 555] | 5 (Level 5: growth control rate is above 85%) | 5 (Level 5: growth control rate is above 85%) | 5 (Level 5: growth control rate is above 85%) | 5 (Level 5: growth control rate is above 85%) | 5 (Level 5: growth control rate is above 85%) |
| CSc1c(C(=O)Nc2nnc(C)o2)ccc(C(F)(F)F)c1[S@+]([O-])CC(C)F (stereo partly drawn) [Compound 557] | 5 (Level 5: growth control rate is above 85%) | 5 (Level 5: growth control rate is above 85%) | 5 (Level 5: growth control rate is above 85%) | 5 (Level 5: growth control rate is above 85%) | 5 (Level 5: growth control rate is above 85%) |
| Cc1nnc(NC(=O)c2ccc(C(F)(F)F)c([S@+]([O-])C(F)(F)F)c2F)o1 [Compound 30] | 5 (Level 5: growth control rate is above 85%) | 5 (Level 5: growth control rate is above 85%) | 5 (Level 5: growth control rate is above 85%) | 5 (Level 5: growth control rate is above 85%) | 5 (Level 5: growth control rate is above 85%) |
| CSc1c(C(=O)Nc2nnc(C)o2)ccc(C(F)(F)F)c1[S@+]([O-])CC(F)F [Compound 558] | 5 (Level 5: growth control rate is above 85%) | 5 (Level 5: growth control rate is above 85%) | 5 (Level 5: growth control rate is above 85%) | 5 (Level 5: growth control rate is above 85%) | 5 (Level 5: growth control rate is above 85%) |
| CC#CC[S@@+]([O-])c1c(C(F)(F)F)ccc(C(=O)Nc2nnc(C)o2)c1OC [Compound 316] | 5 (Level 5: growth control rate is above 85%) | 5 (Level 5: growth control rate is above 85%) | 5 (Level 5: growth control rate is above 85%) | 5 (Level 5: growth control rate is above 85%) | 5 (Level 5: growth control rate is above 85%) |
| COc1c(C(=O)Nc2nnc(C)o2)ccc(C(F)(F)F)c1[S@+]([O-])CCCN [Compound 339] | 5 (Level 5: growth control rate is above 85%) | 5 (Level 5: growth control rate is above 85%) | 5 (Level 5: growth control rate is above 85%) | 5 (Level 5: growth control rate is above 85%) | 5 (Level 5: growth control rate is above 85%) |
| CCCCOc1c(C(=O)Nc2nnc(C)o2)ccc(C(F)(F)F)c1[S@+]([O-])CCC [Compound 535] | 5 (Level 5: growth control rate is above 85%) | 5 (Level 5: growth control rate is above 85%) | 5 (Level 5: growth control rate is above 85%) | 5 (Level 5: growth control rate is above 85%) | 5 (Level 5: growth control rate is above 85%) |
| CC=CC[S+]([O-])c1c(C(F)(F)F)ccc(C(=O)Nc2nnc(C)o2)c1OC (stereo not drawn) [Compound 313] | 5 (Level 5: growth control rate is above 85%) | 5 (Level 5: growth control rate is above 85%) | 5 (Level 5: growth control rate is above 85%) | 5 (Level 5: growth control rate is above 85%) | 5 (Level 5: growth control rate is above 85%) |
| CCc1nnc(NC(=O)c2ccc(C(F)(F)F)c([S@+]([O-])CC)c2OC)o1 [Compound 424] | 5 (Level 5: growth control rate is above 85%) | 5 (Level 5: growth control rate is above 85%) | 5 (Level 5: growth control rate is above 85%) | 5 (Level 5: growth control rate is above 85%) | 5 (Level 5: growth control rate is above 85%) |
| Cc1nnc(NC(=O)c2ccc(C(F)(F)F)c([S@+]([O-])CCCC(F)(F)F)c2F)o1 [Compound 34] | 5 (Level 5: growth control rate is above 85%) | 5 (Level 5: growth control rate is above 85%) | 5 (Level 5: growth control rate is above 85%) | 5 (Level 5: growth control rate is above 85%) | 5 (Level 5: growth control rate is above 85%) |
| COc1c(C(=O)Nc2nnc(C)o2)ccc(C(F)(F)F)c1[S@+]([O-])C(C)C [Compound 307] | 5 (Level 5: growth control rate is above 85%) | 5 (Level 5: growth control rate is above 85%) | 5 (Level 5: growth control rate is above 85%) | 5 (Level 5: growth control rate is above 85%) | 5 (Level 5: growth control rate is above 85%) |
| CCOC[S+]([O-])c1c(C(F)(F)F)ccc(C(=O)Nc2nnc(C)o2)c1F (stereo not drawn) [Compound 70] | 5 (Level 5: growth control rate is above 85%) | 5 (Level 5: growth control rate is above 85%) | 5 (Level 5: growth control rate is above 85%) | 5 (Level 5: growth control rate is above 85%) | 5 (Level 5: growth control rate is above 85%) |
